Experimental data taken from patent US8940793B2, “4-[(haloalkyl)(dimethyl)ammonio]butanoates and use thereof in the treatment of cardiovascular disease” (JSC Grindeks, priority 2011, dated 2015).
Marks after values point to notes of the source that are not given here.

Experiments:
isolated rat heart = experiment: Isolated rat heart infarction study after oral treatment (cardioprotective activity); format: in vivo, Wistar rats; conditions: for Infarct size, % of control: 20 mg/kg p.o. daily, after 2 weeks of treatment (method: 8 weeks), hearts excised 24 h after last dose, 60 min occlusion, 150 min reperfusion, mean ± s.e.m. of 9-10 animals; for Therapeutical (cardioprotective) effect, in words / Decrease of infarct size: 20 mg/kg p.o., isolated rat heart infarction model; for Decrease of infarct size: versus control
Method: Fifty male, 10 weeks old Wistar rats weighing 200-250 g were housed under standard conditions (21-23° C., 12 h light-dark cycle) with unlimited access to food (R3 diet, Lactamin AB, Sweden) and water.
(§1) Rats were adapted to local conditions for two weeks before the start of treatment. Meldonium dihydrate at a dose of 20 mg/kg, gamma-butyrobetaine at a dose of 20 mg/kg and 4-[(chloromethyl)(dimethyl) ammonio]butanoate at dose of 20 mg/kg were administered p.o. daily for 8 weeks. Control rats received water.
The isolated rat heart experiment was performed essentially as described earlier (Liepinsh et al., J. Cardiovasc. Pharmacol. 2006; 48(6):314-9). Twenty-four hours after the last drug administration hearts were excised and retrogradely perfused via the aorta at a constant pressure with oxygenated Krebs-Henseleit buffer at 37° C. The heart rate, left ventricle end-diastolic pressure and left ventricle developed pressure were continuously recorded. Coronary flow was measured using an ultrasound flow detector (HSE) and the PowerLab 8/30 system from ADInstruments. The hearts were perfused for 20 min to stabilize the hemodynamic functions and then occlusion was performed for 60 min by constricting threads through a plastic tube. Successful occlusion was confirmed by a coronary flow decrease of about 40 percent. Reperfusion was achieved by releasing the threads. At the end of the 150-min reperfusion period, the risk zone was delineated with 0.1% methylene blue. The hearts were then sectioned transversely from the apex to the base in five slices 2 mm in thickness and incubated in 1% triphenyltetrazolium chloride in phosphate buffer (pH 7.4, 37° C.) for 10 min to stain viable tissue red and necrotic tissue white. Computerized planemetric analysis of Sony A900 photographs was performed using Image-Pro Plus 6.3 software to determine the area at risk and area of necrosis expressed as a % of the left ventricle. The obtained values were then used to calculate the infarct size (IS) as a % of risk area according to the formula: Infarct Size=Area of Necrosis/Area at Risk×100%. Effects in Isolated Rat Heart Infarction Model
The anti-infarction effect of examined substances was investigated in an isolated rat heart infarction model. During occlusion of left coronary artery, the coronary flow in all experimental groups was decreased for 40% (from 11 ml/min to 7 ml/min). Moreover, the drop of developed left ventricular pressure for 50% was observed. […] In reperfusion stage, coronary flow, developed left ventricular pressure, ±dp/dt values were recovered till about 80% of control level. There were no significant differences between control and treatment groups.
Effects of Meldonium dihydrate (20 mg/kg), gamma-butyrobetaine (20 mg/kg) and 4-[(chloromethyl)(dimethyl) ammonio]butanoate (20 mg/kg) after 2 weeks of treatment on infarct size in the isolated rat heart infarction experiment are presented in Table 1.
as §1, with “3-carboxy-N-(2-chloroethyl)-N,N-dimethylpropan-1-aminium chloride” for “4-[(chloromethyl)(dimethyl) ammonio]butanoate”
Effects of Meldonium dihydrate (20 mg/kg), gamma-butyrobetaine (20 mg/kg) and 3-carboxy-N-(2-chloroethyl)-N,N-dimethylpropan-1-aminium chloride (20 mg/kg) after 2 weeks of treatment on infarct size in the isolated rat heart infarction experiment are presented in Table 2.
The same experimental conditions as above were used for testing 3-carboxy-N-(2-fluoroethyl)-N,N-dimethylpropan-1-aminium chloride.
Effects of Meldonium dihydrate (20 mg/kg), gamma-butyrobetaine (20 mg/kg) and 3-carboxy-N-(2-fluoroethyl)-N,N-dimethylpropan-1-aminium chloride (20 mg/kg) after 2 weeks of treatment on infarct size in the isolated rat heart infarction experiment are presented in Table 3.

[1] = s.c.; cited from earlier work

Compound | melting point [°C] | Infarct size, % of control (isolated rat heart) | Therapeutical (cardioprotective) effect, in words (isolated rat heart) | Decrease of infarct size (isolated rat heart) [%] | LD50 [1] [mg/kg]
C[N+](C)(CCCl)CCCC(=O)O.[Cl-] [3-carboxy-N-(2-chloroethyl)-N,N-dimethylpropan-1-aminium chloride] | 130 | 59.9 ± 7.6*^,#,$ % of control | best therapeutical effect | 41.1 | –
C[N+](C)(CCF)CCCC(=O)O.[Cl-] [3-carboxy-N-(2-fluoroethyl)-N,N-dimethylpropan-1-aminium chloride] | – | 65.5 ± 9.1*^,#,$ % of control | best therapeutical effect | 34.5 | –
C[N+](C)(C)NCCC(=O)[O-] [Meldonium dihydrate, 3-(2,2,2-Trimethylhydrazinium) propionate dihydrate, reference compound] | – | 117.9 ± 7.9 % of control | – | – | –
C[N+](C)(C)CCCC(=O)[O-] [Gamma-butyrobetaine, γ-Butyrobetaine, reference compound] | – | 87.6 ± 11.4 % of control | – | ~12.4 | > 7000
C[N+](C)(CCl)CCCC(=O)[O-] [4-[(chloromethyl)(dimethyl)ammonio]butanoate] | 100.5 to 101 | 65.2 ± 6.8*^,#,$ % of control | best therapeutical effect | 34.8 | –
